According to patent US20170014375A1, “PHARMACEUTICAL COMPOSITION COMPRISING EFFECTIVE DOSE OF POMIFERIN FOR TREATING CANCERS” (Macau University of Science and Technology, priority 2015, published 2017):
pIC50: −log10 of the molar value.

Legend:
[1] = tested on: H1299 (human lung cancer) cells; experiment: MTT cytotoxicity assay, H1299; type: cell-based; settings: NCI-H1299, 72 h, 3 days, read-out: Means of IC50
Procedure: (§1) Pomiferin is dissolved in DMSO at a final concentration of 100 mmol/L and stored at −20° C. Cytotoxicity is assessed using the 3-(4,5-dimethylthiazol-2-yl)-2,5-diphenyltetrazolium bromide assay. 4000-8000 HeLa (human cervical cancer), MCF-7 (human breast cancer), HepG2 and Hep3B (human liver cancer), H1299 and A549 (human lung cancer), LNCap (human prostate cancer) and LLC-1 (mouse Lewis lung carcinoma) cells are seeded on 96-well plates per well. After overnight pre-incubation, the cells are exposed to different concentrations of pomiferin ([…]) for 3 days. Subsequently, 10 μL of MTT reagents is added to each well and incubated at 37° C. for 4 hours followed by the addition of 100 μL solubilization buffer (10% SDS in 0.01 mol/L HCl) and overnight incubation. Absorbance at 585 nm is determined from each well the next day. The percentage of cell viability is calculated using the following formula: Cell viability (%)=Cells number treated/Cells number DMSO control×100. Data are obtained from three independent experiments.

[2] = tested on: LLC-1 (mouse Lewis lung carcinoma) cells; experiment: MTT cytotoxicity assay, LLC-1; type: cell-based; settings: LLC1, 72 h, LLC-1 (Lung), 3 days, read-out: Means of IC50
Procedure: as §1

[3] = tested on: Bax-Bak wild-type mouse embryonic fibroblasts; experiment: MTT cytotoxicity assay, Bax-Bak WT MEFs; type: cell-based; settings: Fibroblast, 72 h, 3 days, read-out: Means of IC50
Procedure: (§2) The test compound of pomiferin is dissolved in DMSO at a final concentration of 100 mmol/L and stored at −20° C. Cytotoxicity is assessed using the 3-(4,5-dimethylthiazol-2-yl)-2,5-diphenyltetrazolium bromide assay as previously described^29. 2500 of caspase wild-type (caspase WT), caspase-3 deficient (caspase 3KO), caspase-7 deficient (caspase 7KO), caspase-3/-7 deficient (caspase 3/7 DKO), caspase-8 deficient (caspase 8KO), Bax-Bak wild-type (Bak-Bak WT) and Bax-Bak double knock out (Bak-Bak DKO) mouse embryonic fibroblasts (MEFs) are seeded on 96-well plates per well. After overnight pre-incubation, the cells are exposed to different concentrations of pomiferin (namely 100, 50, 25, 12.5, 6.25, 3.125, 1.5625, 0.78, 0.39, 0.195, 0.079, 0.039 μmol/L) for 3 days. Subsequently, 10 μL of MTT reagents is added to each well and incubated at 37° C. for 4 hours, followed by the addition of 100 μL solubilization buffer (10% SDS in 0.01 mol/L HCl) and overnight incubation. Absorbance at 585 nm is determined from each well on the following day. The percentage of cell viability is calculated using the following formula: Cell viability (%)=Cells numbertreated/Cells numberDMSO control×100. Data is obtained from three independent experiments.

[4] = tested on: Bax-Bak double knock out (DKO) mouse embryonic fibroblasts; experiment: MTT cytotoxicity assay, Bax-Bak DKO MEFs; type: cell-based; settings: Fibroblast, 72 h, 3 days, read-out: Means of IC50
Procedure: as §2

[5] = tested on: HCT116 p53+/− (heterozygous) isogenic colon cancer cells; experiment: MTT cytotoxicity assay, HCT116 p53+/−; type: cell-based; settings: Homo sapiens, HCT-116, 72 h, 3 days, read-out: Means of IC50
Procedure: as §2, with “4000” for “2500”, “drug-resistant HCT-116 p53+/+, HCT-116 p53−/−” for “caspase wild-type (caspase WT), caspase-3 deficient (caspase 3KO), caspase-7 deficient (caspase 7KO), caspase-3/-7 deficient (caspase 3/7 DKO), caspase-8 deficient (caspase 8KO), Bax-Bak wild-type (Bak-Bak WT)”, “HCT-116 p53−/− isogenic colon cancer cells” for “Bax-Bak double knock out (Bak-Bak DKO) mouse embryonic fibroblasts (MEFs)”, “[…])” for “μmol/L)”

HeLa cancer cells = experiment: Western blot of autophagic marker LC3-II conversion; type: cell-based, human; settings: 0-15 μM, FIG. 1A
Procedure: After pomiferin treatments in the presence or absence of lysosomal inhibitor 50 nM of Bafilomycin A1 or autophagy inhibitor 5 mM 3-MA, HeLa cancer cells are harvested and lysed in RIPA buffer (Cell Signaling Technologies Inc., Beverly, Mass.). The cell lysates are then resolved by SDS-PAGE. After electrophoresis, the proteins from SDS-PAGE are transferred to nitrocellulose membrane which is then blocked with 5% non-fat dried milk for 60 minutes. The membrane is then incubated with LC3 primary antibodies (1:1000) in TBST overnight at 4° C. After that, the membrane is further incubated with HRP-conjugated secondary antibodies for 60 minutes. Finally, protein bands are visualized by using the ECL Western Blotting Detection Reagents (Invitrogen, Paisley, Scotland, UK).

[6] = tested on: caspase WT, 3KO, 7KO, 3/7 DKO, 8KO, Bax-Bak WT and Bax-Bak DKO MEFs; experiment: Endogenous autophagic LC3 puncta in apoptosis-resistant MEFs; type: cell-based, mouse; settings: wild-type and apoptosis-resistant MEFs; FIG. 7
Procedure: Endogenous LC3 puncta formation is quantified as previously described^2. In brief, caspase wild-type (caspase WT), caspase-3 deficient (caspase 3KO), caspase-7 deficient (caspase 7KO), caspase-3/-7 deficient (caspase 3/7 DKO), caspase-8 deficient (caspase 8KO), Bax-Bak wild-type (Bak-Bak WT) and Bax-Bak double knock out (Bak-Bak DKO) MEFs are grown on coverslips in a 6-well plate are treated with […] of pomiferin. Both wild-type and deficient MEFs are then fixed in 4% paraformaldehyde for 20 minutes at room temperature and then rinsed with PBS. After washing with PBS, the cells are then incubated with anti-LC3 (1:200) in TBST (100 mM Tris HCl, pH 7.5, 150 mM NaCl, 0.05% Tween 20 and 5% BSA) overnight at 4. After washing with PBS, the cells are incubated with anti-mouse secondary antibody (TRITC) 1:200 in TBST containing 5% BSA at 37 for 1 hrs in the dark. The coverslips are then mounted with FluorSave™ mounting media (Calbiochem, San Diego, Calif., USA) for fluorescence imaging and localization of LC3 autophagosomes are captured under the API Delta Vision Live-cell Imaging System (Applied Precision Inc., GE Healthcare Company, Washington, USA).

CC(C)=CCc1c2c(c3occ(-c4ccc(O)c(O)c4)c(=O)c3c1O)C=CC(C)(C)O2 [pomiferin]
pIC50 [1]: 4.79 | pIC50 [2]: 5.42 | pIC50 [3]: 6.36 | pIC50 [4]: 6.01 | pIC50 [5]: 5.25 | autophagic marker LC3-II conversion (HeLa cancer cells): induced | autophagy induction (endogenous LC3 puncta) [6]: able to induce autophagy in all these wild-type and apoptosis-resistant cells
